Source: ChEMBL document CHEMBL3593172, “4-(N-Phenyl-N'-substituted benzenesulfonyl)-6-(4-hydroxyphenyl)quinolines as inhibitors of mammalian target of rapamycin” (Bioorg Med Chem, 2015)

System: HepG2
Assay: Cytotoxicity against human HepG2 cells assessed as growth inhibition at 10 uM after 24 to 48 hrs by MTT assay relative to control
Format: functional
Details: read-out: GI

Compound | inhibition of growth at 10 µM [%]
Nc1ccc(S(=O)(=O)N(c2ccccc2)c2ccnc3ccc(-c4ccc(O)cc4)cc23)cc1 | 59
COc1ccc(-c2ccc3nccc(Nc4ccccc4)c3c2)cc1 | 19

System: HL-60
Assay: cells
Details: Homo sapiens, HL-60, 48 h
Description: Cytotoxicity against human HL60 cells assessed as inhibition of cell proliferation after 48 hrs by MTT assay

Compound | IC50 [µM]
Nc1ccc(S(=O)(=O)N(c2ccccc2)c2ccnc3ccc(-c4ccc(O)cc4)cc23)cc1 | 5
COc1ccc(-c2ccc3nccc(Nc4ccccc4)c3c2)cc1 | 18

System: HCT-116
Assay: Cytotoxicity against human HCT116 cells assessed as growth inhibition at 100 uM after 24 to 48 hrs by MTT assay relative to control
Format: functional
Details: read-out: GI

Compound | inhibition of growth at 100 µM [%]
Nc1ccc(S(=O)(=O)N(c2ccccc2)c2ccnc3ccc(-c4ccc(O)cc4)cc23)cc1 | 88
COc1ccc(-c2ccc3nccc(Nc4ccccc4)c3c2)cc1 | 77

System: HepG2
Assay: Cytotoxicity against human HepG2 cells assessed as growth inhibition at 30 uM after 24 to 48 hrs by MTT assay relative to control
Format: functional
Details: read-out: GI

Compound | inhibition of growth at 30 µM [%]
Nc1ccc(S(=O)(=O)N(c2ccccc2)c2ccnc3ccc(-c4ccc(O)cc4)cc23)cc1 | 70
COc1ccc(-c2ccc3nccc(Nc4ccccc4)c3c2)cc1 | 30

System: HCT-116
Assay: Cytotoxicity against human HCT116 cells assessed as growth inhibition at 30 uM after 24 to 48 hrs by MTT assay relative to control
Format: functional
Details: read-out: GI

Compound | inhibition of growth at 30 µM [%]
Nc1ccc(S(=O)(=O)N(c2ccccc2)c2ccnc3ccc(-c4ccc(O)cc4)cc23)cc1 | 54
COc1ccc(-c2ccc3nccc(Nc4ccccc4)c3c2)cc1 | 45

System: PC-3
Assay: Cytotoxicity against human PC3 cells assessed as growth inhibition at 10 uM after 24 to 48 hrs by MTT assay relative to control
Format: functional
Details: read-out: GI

Compound | inhibition of growth at 10 µM [%]
Nc1ccc(S(=O)(=O)N(c2ccccc2)c2ccnc3ccc(-c4ccc(O)cc4)cc23)cc1 | 30
COc1ccc(-c2ccc3nccc(Nc4ccccc4)c3c2)cc1 | 40

System: PC-3
Assay: Cytotoxicity against human PC3 cells assessed as growth inhibition at 100 uM after 24 to 48 hrs by MTT assay relative to control
Format: functional
Details: read-out: GI

Compound | inhibition of growth at 100 µM [%]
Nc1ccc(S(=O)(=O)N(c2ccccc2)c2ccnc3ccc(-c4ccc(O)cc4)cc23)cc1 | 84
COc1ccc(-c2ccc3nccc(Nc4ccccc4)c3c2)cc1 | 71

System: not listed separately
Assay: cells
Details: Homo sapiens, MIA PaCa-2, 48 h
Description: Cytotoxicity against human MIAPaCa2 cells assessed as inhibition of cell proliferation after 48 hrs by MTT assay

Compound | IC50 [µM]
Nc1ccc(S(=O)(=O)N(c2ccccc2)c2ccnc3ccc(-c4ccc(O)cc4)cc23)cc1 | 8
COc1ccc(-c2ccc3nccc(Nc4ccccc4)c3c2)cc1 | 26

System: HL-60
Assay: Cytotoxicity against human HL60 cells assessed as growth inhibition at 100 uM after 24 to 48 hrs by MTT assay relative to control
Format: functional
Details: read-out: GI

Compound | inhibition of growth at 100 µM [%]
Nc1ccc(S(=O)(=O)N(c2ccccc2)c2ccnc3ccc(-c4ccc(O)cc4)cc23)cc1 | 92
COc1ccc(-c2ccc3nccc(Nc4ccccc4)c3c2)cc1 | 91

System: HL-60
Assay: Cytotoxicity against human HL60 cells assessed as growth inhibition at 30 uM after 24 to 48 hrs by MTT assay relative to control
Format: functional
Details: read-out: GI

Compound | inhibition of growth at 30 µM [%]
Nc1ccc(S(=O)(=O)N(c2ccccc2)c2ccnc3ccc(-c4ccc(O)cc4)cc23)cc1 | 81
COc1ccc(-c2ccc3nccc(Nc4ccccc4)c3c2)cc1 | 69

System: HL-60
Assay: Cytotoxicity against human HL60 cells assessed as growth inhibition at 10 uM after 24 to 48 hrs by MTT assay relative to control
Format: functional
Details: read-out: GI

Compound | inhibition of growth at 10 µM [%]
Nc1ccc(S(=O)(=O)N(c2ccccc2)c2ccnc3ccc(-c4ccc(O)cc4)cc23)cc1 | 66
COc1ccc(-c2ccc3nccc(Nc4ccccc4)c3c2)cc1 | 32

System: PC-3
Assay: cells
Details: Homo sapiens, PC-3, 48 h
Description: Cytotoxicity against human PC3 cells assessed as inhibition of cell proliferation after 48 hrs by MTT assay

Compound | IC50 [µM]
Nc1ccc(S(=O)(=O)N(c2ccccc2)c2ccnc3ccc(-c4ccc(O)cc4)cc23)cc1 | 45
COc1ccc(-c2ccc3nccc(Nc4ccccc4)c3c2)cc1 | 39

System: not listed separately
Assay: Cytotoxicity against human MIAPaCa2 cells assessed as growth inhibition at 30 uM after 24 to 48 hrs by MTT assay relative to control
Format: functional
Details: MIA PaCa-2, read-out: GI

Compound | inhibition of growth at 30 µM [%]
Nc1ccc(S(=O)(=O)N(c2ccccc2)c2ccnc3ccc(-c4ccc(O)cc4)cc23)cc1 | 84
COc1ccc(-c2ccc3nccc(Nc4ccccc4)c3c2)cc1 | 53

System: HepG2
Assay: cells
Details: Homo sapiens, HepG2, 48 h
Description: Cytotoxicity against human HepG2 cells assessed as inhibition of cell proliferation after 48 hrs by MTT assay

Compound | IC50 [µM]
Nc1ccc(S(=O)(=O)N(c2ccccc2)c2ccnc3ccc(-c4ccc(O)cc4)cc23)cc1 | 9
COc1ccc(-c2ccc3nccc(Nc4ccccc4)c3c2)cc1 | > 100

System: HepG2
Assay: Cytotoxicity against human HepG2 cells assessed as growth inhibition at 100 uM after 24 to 48 hrs by MTT assay relative to control
Format: functional
Details: read-out: GI

Compound | inhibition of growth at 100 µM [%]
Nc1ccc(S(=O)(=O)N(c2ccccc2)c2ccnc3ccc(-c4ccc(O)cc4)cc23)cc1 | 71
COc1ccc(-c2ccc3nccc(Nc4ccccc4)c3c2)cc1 | 36

System: not listed separately
Assay: Cytotoxicity against human MIAPaCa2 cells assessed as growth inhibition at 100 uM after 24 to 48 hrs by MTT assay relative to control
Format: functional
Details: MIA PaCa-2, read-out: GI

Compound | inhibition of growth at 100 µM [%]
Nc1ccc(S(=O)(=O)N(c2ccccc2)c2ccnc3ccc(-c4ccc(O)cc4)cc23)cc1 | 85
COc1ccc(-c2ccc3nccc(Nc4ccccc4)c3c2)cc1 | 55

System: PC-3
Assay: Cytotoxicity against human PC3 cells assessed as growth inhibition at 30 uM after 24 to 48 hrs by MTT assay relative to control
Format: functional
Details: read-out: GI

Compound | inhibition of growth at 30 µM [%]
Nc1ccc(S(=O)(=O)N(c2ccccc2)c2ccnc3ccc(-c4ccc(O)cc4)cc23)cc1 | 40
COc1ccc(-c2ccc3nccc(Nc4ccccc4)c3c2)cc1 | 46

System: HCT-116
Assay: cells
Details: Homo sapiens, HCT-116, 48 h
Description: Cytotoxicity against human HCT116 cells assessed as inhibition of cell proliferation after 48 hrs by MTT assay

Compound | IC50 [µM]
Nc1ccc(S(=O)(=O)N(c2ccccc2)c2ccnc3ccc(-c4ccc(O)cc4)cc23)cc1 | 28
COc1ccc(-c2ccc3nccc(Nc4ccccc4)c3c2)cc1 | 40

System: HCT-116
Assay: Cytotoxicity against human HCT116 cells assessed as growth inhibition at 10 uM after 24 to 48 hrs by MTT assay relative to control
Format: functional
Details: read-out: GI

Compound | inhibition of growth at 10 µM [%]
Nc1ccc(S(=O)(=O)N(c2ccccc2)c2ccnc3ccc(-c4ccc(O)cc4)cc23)cc1 | 33
COc1ccc(-c2ccc3nccc(Nc4ccccc4)c3c2)cc1 | 16

System: not listed separately
Assay: Cytotoxicity against human MIAPaCa2 cells assessed as growth inhibition at 10 uM after 24 to 48 hrs by MTT assay relative to control
Format: functional
Details: MIA PaCa-2, read-out: GI

Compound | inhibition of growth at 10 µM [%]
Nc1ccc(S(=O)(=O)N(c2ccccc2)c2ccnc3ccc(-c4ccc(O)cc4)cc23)cc1 | 64
COc1ccc(-c2ccc3nccc(Nc4ccccc4)c3c2)cc1 | 42
